Results reported in US20080076760A1, “2,3,4,5-TETRAHYDRO-1H-1,5-BENZODIAZEPINE DERIVATIVE AND MEDICINAL COMPOSITION” (priority 2004, published 2008).

Experiments:
[1] = target: human vasopressin V2 receptor (Homo sapiens, UniProt P30518); test: Receptor binding study, [3H]AVP displacement on CHO cell membranes, human V2; settings: [3H]AVP displacement, CHO cell membrane, 25° C., one hour; read-out: Human V2 Ki
Method: Preparation of Chinese hamster ovary (Cho) cell which expresses human vasopressin receptor subtype and production of membrane sample of the cell was conducted according to the method of Tahara et al. (Br. J. Pharmacol., 125, 1463-1470, 1998).
(§1) (ii) Receptor Binding Study
In saturation binding experiment, the membrane sample and [^3H]AVP of several concentrations (0.125 nM to 4.0 nM) were mixed and incubated in microplate wells. In displacement experiment, [^3H]AVP of constant concentrations (0.5 nM to 1.0 nM) and the membrane sample were mixed with Compound A of several concentrations, and incubation was performed. Assay was performed using 50 mM of Tris-HCl (pH=7.4) (total amount: 250 μL) (buffer composition: containing […] of MgCl2 and 0.1% BSA), and incubation was performed at room temperature (25° C.) for one hour. After incubation, suck filtration was immediately performed and reaction was completed when the membrane sample was collected on a glass fiber filter fitted with the microplate. After the filter was washed with an ice-cold Tris-HCl buffer (50 mM Tris-HCl, 10 mM MgCl2, pH 7.4), radioactivity measurement was performed. Nonspecific binding was determined using nonradioactive-labeled AVP (1 μM).

[2] = target: human vasopressin V1a receptor (Homo sapiens, UniProt P37288); test: Receptor binding study, [3H]AVP displacement on CHO cell membranes, human V1a; settings: [3H]AVP displacement, CHO cell membrane, 25° C., one hour; read-out: Human V1a Ki
Chain of human vasopressin V1a receptor (P37288 whole entry): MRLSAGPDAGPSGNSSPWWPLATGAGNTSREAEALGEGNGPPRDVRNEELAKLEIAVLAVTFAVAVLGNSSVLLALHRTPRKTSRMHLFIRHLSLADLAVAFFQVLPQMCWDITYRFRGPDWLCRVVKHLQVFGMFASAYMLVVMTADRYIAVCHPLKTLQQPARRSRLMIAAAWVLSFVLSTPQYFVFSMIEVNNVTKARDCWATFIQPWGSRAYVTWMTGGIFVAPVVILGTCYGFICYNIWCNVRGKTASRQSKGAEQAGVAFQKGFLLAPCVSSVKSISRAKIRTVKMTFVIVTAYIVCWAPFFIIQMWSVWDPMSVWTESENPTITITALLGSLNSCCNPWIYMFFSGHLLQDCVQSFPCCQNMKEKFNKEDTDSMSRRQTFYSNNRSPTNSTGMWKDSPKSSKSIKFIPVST
Method: as §1
Assay was performed using 50 mM of Tris-HCl (pH=7.4) (total amount: 250 μL) (buffer composition: containing […] of MgCl2 and 0.1% BSA), and incubation was performed at room temperature (25° C.) for one hour. After incubation, suck filtration was immediately performed and reaction was completed when the membrane sample was collected on a glass fiber filter fitted with the microplate. After the filter was washed with an ice-cold Tris-HCl buffer (50 mM Tris-HCl, 10 mM MgCl2, pH 7.4), radioactivity measurement was performed. Nonspecific binding was determined using nonradioactive-labeled AVP (1 μM).

Chain of human vasopressin V2 receptor (P30518 whole entry): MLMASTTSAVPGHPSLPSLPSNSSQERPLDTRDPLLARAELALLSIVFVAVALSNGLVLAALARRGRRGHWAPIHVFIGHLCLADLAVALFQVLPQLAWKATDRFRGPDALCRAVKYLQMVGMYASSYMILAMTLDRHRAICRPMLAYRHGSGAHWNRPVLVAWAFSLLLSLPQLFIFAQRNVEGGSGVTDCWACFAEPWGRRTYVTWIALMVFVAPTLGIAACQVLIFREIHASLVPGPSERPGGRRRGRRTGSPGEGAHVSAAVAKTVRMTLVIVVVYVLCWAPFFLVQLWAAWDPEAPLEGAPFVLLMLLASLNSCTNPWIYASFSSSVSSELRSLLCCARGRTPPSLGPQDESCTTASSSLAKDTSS

| SMILES | Ki [1] [nM] | Ki [2] [nM] |
| --- | --- | --- |
| C[C@H]1CCN(C(=O)c2ccc(-c3ccc4[nH]ccc4c3)c(OCCCCN3CCOCC3)c2)c2ccccc2N1 [Example 67, (4S)-1-[4-(1H-indol-5-yl)-3-[4-(4-morpholinyl)butoxy]benzoyl]-4-methyl-2,3,4,5-tetrahydro-1H-1,5-benzodiazepine] | 8.7 | 0.19 |
| CNc1ccc(-c2ccc(C(=O)N3CC[C@H](C)Nc4ccccc43)cc2OCCN2CCOCC2)cc1 [Example 74, N-methyl-4′-[[(4S)-4-methyl-2,3,4,5-tetrahydro-1H-1,5-benzodiazepin-1-yl]carbonyl]-2′-[2-(4-morpholinyl)ethoxy][1,1′-biphenyl]-4-amine] | 6.1 | 0.24 |
| CCCN(CCC)CCCOc1cc(C(=O)N2CC[C@H](C)Nc3ccccc32)ccc1-c1ccc2[nH]ccc2c1 [Example 79, N-[3-[2-(1H-indol-5-yl)-5-[[(4S)-4-methyl-2,3,4,5-tetrahydro-1H-1,5-benzodiazepin-1-yl]carbonyl]phenoxy]propyl]-N,N-dipropylamine] | 16 | 0.13 |
| CCCN(C)CCCOc1cc(C(=O)N2CC[C@H](C)Nc3ccccc32)ccc1-c1ccc2[nH]ccc2c1 [Example 81, N-[3-[2-(1H-indol-5-yl)-5-[[(4S)-4-methyl-2,3,4,5-tetrahydro-1H-1,5-benzodiazepin-1-yl]carbonyl]phenoxy]propyl]-N-methyl-N-propylamine] | 8 | 0.17 |
| C[C@H]1CCN(C(=O)c2ccc(-c3ccc4[nH]ccc4c3)c(OCCCN(C)C(C)(C)C)c2)c2ccccc2N1 [Example 82, N-(tert-butyl)-N-[3-[2-(1H-indol-5-yl)-5-[[(4S)-4-methyl-2,3,4,5-tetrahydro-1H-1,5-benzodiazepin-1-yl]carbonyl]phenoxy]propyl]-N-methylamine] | 16 | 0.16 |
| COCCN(CCCOc1cc(C(=O)N2CC[C@H](C)Nc3ccccc32)ccc1-c1ccc2[nH]ccc2c1)CCOC [Example 84] | 6.5 | 0.1 |
| CC(C)N(C)CCCOc1cc(C(=O)N2CC[C@H](C)Nc3ccccc32)ccc1-c1ccc2[nH]ccc2c1 [Example 85, N-[3-[2-(1H-indol-5-yl)-5-[[(4S)-4-methyl-2,3,4,5-tetrahydro-1H-1,5-benzodiazepin-1-yl]carbonyl]phenoxy]propyl]-N-isopropyl-N-methylamine] | 7.7 | 0.052 |
| C[C@H]1CCN(C(=O)c2ccc(-c3ccc4[nH]ccc4c3)c(NC(=O)N3CCOCC3)c2)c2ccccc2N1 [Example 89, N-[2-(1H-indol-5-yl)-5-[[(4S)-4-methyl-2,3,4,5-tetrahydro-1H-1,5-benzodiazepin-1-yl]carbonyl]phenyl]-4-morpholine carboxamide] | 19 | 0.29 |
| C[C@H]1CCN(C(=O)c2ccc(-c3ccc4[nH]ccc4c3)c(CN3CCOCC3)c2)c2ccccc2N1 [Example 94, (4S)-1-[4-(1H-indol-5-yl)-3-(4-morpholinylmethyl)benzoyl]-4-methyl-2,3,4,5-tetrahydro-1H-1,5-benzodiazepine] | 0.73 | 0.21 |
| C[C@H]1CCN(C(=O)c2ccc(-c3ccc4[nH]ccc4c3)c(OCCCN3C(=O)CNC3=O)c2)c2ccccc2N1 [Example 97, 3-[3-[2-(1H-indol-5-yl)-5-[[(4S)-4-methyl-2,3,4,5-tetrahydro-1H-1,5-benzodiazepin-1-yl]carbonyl]phenoxy]propyl]-2,4-imidazolidinedion] | 0.39 | 0.13 |
| C[C@H]1CCN(C(=O)c2ccc(-c3ccc4[nH]ccc4c3)c(C(=O)N3CCN(C)CC3)c2)c2ccccc2N1 [Example 102, (4S)-1-[4-(1H-indol-5-yl)-3-[(4-methyl-1-piperazinyl)carbonyl]benzoyl]-4-methyl-2,3,4,5-tetrahydro-1H-1,5-benzodiazepine] | 61 | 0.25 |
| C[C@H]1CCN(C(=O)c2ccc(-c3ccc4[nH]ccc4c3)c(OCCCCN3CCN(C)CC3)c2)c2ccccc2N1 [Example 103] | 3.6 | 0.24 |

More lines, now with the values ahead:

| Ki [1] [nM] | Ki [2] [nM] | SMILES |
| --- | --- | --- |
| 3.6 | 0.41 | C[C@@H]1CCN(C(=O)c2ccc(-c3ccc4[nH]ccc4c3)c(OCCN3CCOCC3)c2)c2ccccc2N1 [Example 66, (4R)-1-[4-(1H-indol-5-yl)-3-[2-(4-morpholinyl)ethoxy]benzoyl]-4-methyl-2,3,4,5-tetrahydro-1H-1,5-benzodiazepine] |
| 17 | 0.24 | C[C@H]1CCN(C(=O)c2ccc(-c3ccc4[nH]ccc4c3)c(OCCCCCN3CCOCC3)c2)c2ccccc2N1 [Example 69, (4S)-1-[4-(1H-indol-5-yl)-3-[[5-(4-morpholinyl)pentyl]oxy]benzoyl]-4-methyl-2,3,4,5-tetrahydro-1H-1,5-benzodiazepine] |
| 6.9 | 0.19 | C[C@H]1CCN(C(=O)c2ccc(-c3ccc4[nH]ccc4c3)c(OCCCN3CCN(C)CC3)c2)c2ccccc2N1 [Example 70, (4S)-1-[4-(1H-indol-5-yl)-3-[3-(4-methyl-1-piperazinyl)propoxy]benzoyl]-4-methyl-2,3,4,5-tetrahydro-1H-1,5-benzodiazepine] |
| 11 | 0.16 | C[C@H]1CCN(C(=O)c2ccc(-c3ccc4[nH]ccc4c3)c(OCCCN3CCCCC3)c2)c2ccccc2N1 [Example 71, (4S)-1-[4-(1H-indol-5-yl)-3-[3-(1-piperidinyl)propoxy]benzoyl]-4-methyl-2,3,4,5-tetrahydro-1H-1,5-benzodiazepine] |
| 4.6 | 0.19 | CC(=O)N1CCN(CCCOc2cc(C(=O)N3CC[C@H](C)Nc4ccccc43)ccc2-c2ccc3[nH]ccc3c2)CC1 [Example 73, (4S)-1-[3-[3-(4-acetyl-1-piperazinyl)propoxy]-4-(1H-indol-5-yl)]-4-methyl-2,3,4,5-tetrahydro-1H-1,5-benzodiazepine] |
| 12 | 0.11 | C[C@H]1CCN(C(=O)c2ccc(-c3ccc4[nH]ccc4c3)c(OCCCN(C)C)c2)c2ccccc2N1 [Example 78, N-[3-[2-(1H-indol-5-yl)-5-[[(4S)-4-methyl-2,3,4,5-tetrahydro-1H-1,5-benzodiazepin-1-yl]carbonyl]phenoxy]propyl]-N,N-dimethylamine] |
| 5.1 | 0.064 | CC1CN(CCCOc2cc(C(=O)N3CC[C@H](C)Nc4ccccc43)ccc2-c2ccc3[nH]ccc3c2)CC(C)O1 (stereo partly drawn) [Example 80, (4S)-1-[3-[3-(2,6-dimethyl-4-morpholinyl)propoxy]-4-(1H-indol-5-yl)benzoyl]-4-methyl-2,3,4,5-tetrahydro-1H-1,5-benzodiazepine] |
| 17 | 0.13 | C[C@H]1CCN(C(=O)c2ccc(-c3ccc4[nH]ccc4c3)c(OCCCN3CCC(C(N)=O)CC3)c2)c2ccccc2N1 [Example 83, 1-[3-[2-(1H-indol-5-yl)-5-[[(4S)-4-methyl-2,3,4,5-tetrahydro-1H-1,5-benzodiazepin-1-yl]carbonyl]phenoxy]propyl]-4-piperidine carboxamide] |
| 8.7 | 0.086 | C[C@H]1CCN(C(=O)c2ccc(-c3ccc4[nH]ccc4c3)c(OCCCN3CCC(NC=O)CC3)c2)c2ccccc2N1 [Example 87, 1-[3-[2-(1H-indol-5-yl)-5-[[(4S)-4-methyl-2,3,4,5-tetrahydro-1H-1,5-benzodiazepin-1-yl]carbonyl]phenoxy]propyl]-4-piperidinylformamide] |
| 3 | 0.3 | C[C@H]1CCN(C(=O)c2ccc(-c3ccc4[nH]ccc4c3)c(OCCCN3CCC[C@H]3C(N)=O)c2)c2ccccc2N1 [Example 88, (2S)-1-[3[2-(1H-indol-5-yl)-5-[[(4S)-4-methyl-2,3,4,5-tetrahydro-1H-1,5-benzodiazepin-1-yl]carbonyl]phenoxy]propyl]-2-pyrrolidine carboxamide] |
| 5.6 | 0.21 | C[C@H]1CCN(C(=O)c2ccc(-c3ccc4[nH]ccc4c3)c(OCCCN3CCOC3=O)c2)c2ccccc2N1 [Example 92, 3-[3-[2-(1H-indol-5-yl)-5-[[(4S)-4-methyl-2,3,4,5-tetrahydro-1H-1,5-benzodiazepin-1-yl]carbonyl]phenoxy]propyl]-1,3-oxazolidin-2-one] |
| 3.4 | 0.3 | CC(C)N1CCN(CCCOc2cc(C(=O)N3CC[C@H](C)Nc4ccccc43)ccc2-c2ccc3[nH]ccc3c2)CC1 [Example 99, (4S)-1-[4-(1H-indol-5-yl)-3-[3-(4-isopropyl-1-piperazinyl)propoxy]benzoyl]-4-methyl-2,3,4,5-tetrahydro-1H-1,5-benzodiazepine] |
| 3.2 | 0.46 | C[C@H]1CCN(C(=O)c2ccc(-c3ccc4[nH]ccc4c3)c(OCCCN3C(=O)CSC3=O)c2)c2ccccc2N1 [Example 100, 3-[3-[2-(1H-indol-5-yl)-5-[[(4S)-4-methyl-2,3,4,5-tetrahydro-1H-1,5-benzodiazepin-1-yl]carbonyl]phenoxy]propyl]-1,3-thiazolidine-2,4-dione] |
